# Patent US6596863B2, “Medical composition containing nitroetheneamine Derivative or salt there of as active constituent” (Ishihara Sangyo Kaisha, Ltd., priority 1998, dated 2003)
# Where two headings read alike, the source gives them in different places.
# Columns and labels:
# [1] = biological target: T1, human MMP-9 (gelatinase B) (Homo sapiens, UniProt P14780); assay: Inhibition activity against human MMP-9 (gelatinase B), fluorescent peptide substrate; format: biochemical
# T1 construct: endogenous in cells; host or cells: HT1080 human fibrosarcoma cells (ATCC CCL-121), PMA-stimulated; enzyme purified from the culture supernatant
# T1 sequence (P14780 107-707 limits assumed): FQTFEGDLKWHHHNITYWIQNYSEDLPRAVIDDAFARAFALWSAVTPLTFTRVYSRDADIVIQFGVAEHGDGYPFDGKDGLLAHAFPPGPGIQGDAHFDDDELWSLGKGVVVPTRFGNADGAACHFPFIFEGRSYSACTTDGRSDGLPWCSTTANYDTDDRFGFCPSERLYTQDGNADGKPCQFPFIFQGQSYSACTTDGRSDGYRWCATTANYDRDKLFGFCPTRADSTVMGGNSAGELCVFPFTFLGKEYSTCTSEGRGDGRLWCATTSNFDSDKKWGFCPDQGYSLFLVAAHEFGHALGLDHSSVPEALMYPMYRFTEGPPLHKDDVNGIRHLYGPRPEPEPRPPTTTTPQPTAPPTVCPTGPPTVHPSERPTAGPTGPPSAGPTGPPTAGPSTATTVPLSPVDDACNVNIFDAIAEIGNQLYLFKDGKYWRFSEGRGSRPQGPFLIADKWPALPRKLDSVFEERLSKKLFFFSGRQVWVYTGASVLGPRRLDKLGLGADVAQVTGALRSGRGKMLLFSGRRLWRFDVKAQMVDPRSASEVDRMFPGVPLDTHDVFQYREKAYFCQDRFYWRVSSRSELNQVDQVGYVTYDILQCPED
# Experimental: Human MMP-9 (gelatinase B) was purified by the following method from a culture supernatant of HT1080 cells (human fibrosarcoma).
# 2.5×10^6 HT1080 cells (ATCC CCL-121, purchased from Dainippon Seiyaku) were inoculated to a tissue culture dish (Code No. 3020-100, manufactured by Iwaki Glass Co., Ltd.) having a diameter of 10 cm and containing 10 ml of Dulbecco's Modified Eagle Medium (DME, No. D-5648, manufactured by Sigma Co.) containing 10% fetal bovine serum (FBS: REHATUIN™, Code No. 1020-90, manufactured by Intergen Co.) and cultured for 72 hours at 37° C. in an atmosphere comprising 5% of CO2 and 95% of air (Carbon Dioxide Incubator LNA-122D Model, manufactured by Tabai Co.). Then, the medium was changed to 10 ml of a DME culture medium containing no FBS, and phorbol 12-myristate 13-acetate (PMA, code No. 163-114851, manufactured by Wako Pure Chemical Industries, Ltd.) was added so that the final concentration became 10 ng/ml. Under the same conditions, the culturing was carried out for further 20 hours, whereupon the culture supernatant was collected and subjected to cool centrifugation at 4° C. for 5 minutes (cool centrifugal separator, manufactured by Hitachi) to remove cell fragments.
# The pH of a conditioned medium (50 ml) containing MMP-9, thus prepared, was adjusted to 8.0 with 0.2N NaOH. […] Namely, the above-mentioned conditioned medium was passed through DEAE-Sephacel (manufactured by Pharmacia, gel volume: about 35 ml) preliminarily equilibrated with 50 mM Tris-HCl, pH 8.0 (A buffer), and a non-adsorption fraction was collected. Then, it was added to Dye Matrix Gel Green A (manufactured by Amicon Co., gel volume: about 6 ml) preliminarily equilibrated with 50 mM Tris-HCl, pH 7.5/10 MM CaCl2/0.05% Brij 35/0.02% NaN3 (B buffer) and thoroughly washed with the same buffer, whereupon the adsorbed enzyme was eluted with a 1M NaCl-containing B buffer. About 7.5 ml of the eluted fraction was diluted twice with the B buffer and added to Gelatin-Sepharose 4B (manufactured by Pharmacia, gel volume: about 6 ml) preliminarily equilibrated with a 0.5 M NaCl-containing B buffer. It was thoroughly washed with a 0.5M NaCl-containing B buffer, and eluted with the B buffer containing 10% of dimethylsulfoxide (DMSO) and 0.5 M of NaCl. 5.5 ml of the eluted fraction was dialyzed against a 0.1 M NaCl-containing B buffer to obtain 5.2 ml of a purified enzyme solution. The purified MMP-9 standard product was confirmed to have a single band of 92 kDa by a protein staining by SDS electrophoresis, and further, it was confirmed to have an adequate gelatin decomposing activity by gelatinzymography (carried out in accordance with a method by Howard E. W. et al; Journal Biological Chemistry, Vol. 266, 13064-13069, 1991) and to have an adequate substrate decomposing activity by the after-mentioned measurement employing a fluorescent peptide substrate specific to MMP.
# The inhibition activity against human MMP-9 was measured by the following method in accordance with the method by C. G. Knight et al (FEBS Letters, Vol, 296, 263-266, 1992) employing a fluorescent peptide substrate (7-methoxycoumarin-4-yl)Acetyl-Pro-Leu-Gly-Leu-(3-[2,4-dinitrophenyl]—Ala—Arg-NH2, Code 3163-VC, manufactured by Peptide Institute, Inc.
# Further, as the case requires, commercially available human MMP-9 purified enzyme (No. YU-18003, manufactured by Kabushiki Kaisha Yagai Chuo Kenkyusho; used in a final concentration of from 0.0125 to 0.025 unit/ml, No. CC079, manufactured by Chemicon International, Inc.; used in a final concentration of 0.2 μg/ml) was used for the tests. […]
# [2] = compounds of the formula (I), 1st measurement, read-out: MMP-9 inhibition activities IC50, 1st
# [3] = compounds of the formula (I), 2nd measurement, read-out: MMP-9 inhibition activities IC50, 2nd
# [4] = compounds of the formula (I), average of 1st and 2nd (or single measurement), read-out: MMP-9 inhibition activities IC50, Average
# [5] = intermediates, compounds of the formula (IV), 1st measurement, read-out: MMP-9 inhibition activities IC50, 1st
# [6] = intermediates, compounds of the formula (IV), 2nd measurement, read-out: MMP-9 inhibition activities IC50, 2nd
# [7] = intermediates, compounds of the formula (IV), average of 1st and 2nd (or single measurement), read-out: MMP-9 inhibition activities IC50, Average
SMILES,"IC50 [1, 2]","IC50 [1, 3]","IC50 [1, 4]",melting point,"IC50 [1, 5]","IC50 [1, 6]","IC50 [1, 7]"
NNC(=C[N+](=O)[O-])NCc1ccccn1 [compound 79],39 µM,36.6 µM,37.8 µM,190 °C (dec.),,,
CNC(=C[N+](=O)[O-])NNc1nc(OC)nc(OC)n1 [compound 104],21.1 µM,17.5 µM,19.3 µM,202 to 203 °C (dec.),,,
CSC(=C[N+](=O)[O-])Nc1ccc2cn[nH]c2c1 [Intermediate 55],,,,214 to 216 °C,32.5 µM,25.5 µM,29 µM
CCCOc1ccc(NC(=C[N+](=O)[O-])NN)cc1 [compound 71],42.9 µM,37.4 µM,40.2 µM,179 °C (dec.),,,
NNC(=C[N+](=O)[O-])NC1CCCC1 [compound 91],20 µM,35.7 µM,27.9 µM,192 °C (dec.),,,
CNC(=C[N+](=O)[O-])NN=Cc1ccc2c(c1)OCCO2 [compound 141],19.9 µM,18.1 µM,19 µM,179 °C (dec.),,,
COc1cccc(NC(=C[N+](=O)[O-])SC)c1 [Intermediate 20],,,,118 to 121 °C,38.9 µM,49.6 µM,44.3 µM
CNC(=C[N+](=O)[O-])NN=C(C)OC [compound 26],31.9 µM,31.5 µM,31.7 µM,159 °C (dec.),,,
CSC(=C[N+](=O)[O-])Nc1c(C)nn(C)c1C [Intermediate 54],,,,184 to 188 °C,38.7 µM,33.9 µM,36.3 µM
NNC(=C[N+](=O)[O-])Nc1ccccc1 [compound 87],20.5 µM,25.3 µM,22.9 µM,153 °C (dec.),,,
CSC(=C[N+](=O)[O-])Nc1ccc2c(c1)C(=O)CO2 [Intermediate 52],,,,221 to 222 °C (dec.),61.5 µM,50.4 µM,56 µM
Cc1cc(C)c(S(C)(=O)=O)c(NNC(=C[N+](=O)[O-])NS(C)(=O)=O)n1 [compound 202],6.3 µM,,6.3 µM,170 °C (dec.),,,
Cc1nn(C)c(C)c1NC(=C[N+](=O)[O-])NN [compound 111],45.5 µM,26.8 µM,36.2 µM,210 to 214 °C (dec.),,,
CSC(=C[N+](=O)[O-])NC1CC1 [Intermediate 2],,,,101.5 to 106 °C,31.4 µM,59.9 µM,45.7 µM
COc1ccc(NC(=C[N+](=O)[O-])NN)cc1OC [compound 56],39.9 µM,33.5 µM,36.7 µM,148 °C,,,
CNC(=C[N+](=O)[O-])NN=C(C)c1ccncc1 [compound 38],13.7 µM,19.1 µM,16.4 µM,199 °C (dec.),,,
NNC(=C[N+](=O)[O-])Nc1ccc(F)cc1 [compound 53],22.6 µM,29.3 µM,26 µM,183.5 °C (dec.),,,
CSC(=C[N+](=O)[O-])Nc1ccc(F)cc1 [Intermediate 21],,,,156 °C,31.6 µM,54.4 µM,43 µM

# The next lines start with the values.
"IC50 [1, 2]","IC50 [1, 3]","IC50 [1, 4]",melting point,"IC50 [1, 5]","IC50 [1, 6]","IC50 [1, 7]",SMILES
1.4 µM,2.8 µM,2.1 µM,202 °C (dec.),,,,CNC(=C[N+](=O)[O-])NNc1ccc2ccccc2n1 [compound 127]
32.3 µM,35.1 µM,33.7 µM,169 °C (dec.),,,,CNC(=C[N+](=O)[O-])NNc1cc(C(F)(F)F)cc(OCCCc2ccccn2)n1 [compound 118]
8.8 µM,7.8 µM,8.3 µM,193 °C (dec.),,,,"CNC(=C[N+](=O)[O-])NNc1cc(C(F)(F)F)cc(OC)n1 [Compound No. 98, N-methyl-1-(2-(4-trifluoromethyl-6-methoxy-2-pyridyl)hydrazino)-2-nitroetheneamine]"
33.8 µM,26.3 µM,30.1 µM,182 to 183 °C (dec.),,,,CNC(=C[N+](=O)[O-])NNc1ncccn1 [compound 45]
14 µM,,14 µM,180 °C,,,,CNC(=C[N+](=O)[O-])NN=Cc1cccc(C(F)(F)F)c1 [compound 167]
20 µM,10.6 µM,15.3 µM,167 °C (dec.),,,,CNC(=C[N+](=O)[O-])NNc1cc(C(F)(F)F)cc(OCC2CC2)n1 [compound 184]
16.1 µM,29.2 µM,22.7 µM,191 to 192 °C (dec.),,,,CNC(=C[N+](=O)[O-])NN(C)c1cccc(C(F)(F)F)n1 [compound 39]
39.8 µM,39.4 µM,39.6 µM,154 °C (dec.),,,,CNC(=C[N+](=O)[O-])NNc1cc(C(F)(F)F)cc(OCc2ccco2)n1 [compound 120]
35 µM,39.9 µM,37.5 µM,235 °C (dec.),,,,CNC(=C[N+](=O)[O-])NNc1ccnc2cc(C(F)(F)F)ccc12 [compound 147]
10.3 µM,10.9 µM,10.6 µM,147 °C,,,,CCOCCCOc1cc(C(F)(F)F)cc(NNC(=C[N+](=O)[O-])NC)n1 [compound 197]
8.1 µM,13.6 µM,10.9 µM,128 °C,,,,CCCCOCCOc1cc(C(F)(F)F)cc(NNC(=C[N+](=O)[O-])NC)n1 [compound 192]
26.7 µM,27 µM,26.9 µM,176 to 177 °C (dec.),,,,CNC(=C[N+](=O)[O-])NNc1ccc(OC(F)(F)F)cc1 [compound 95]
14.8 µM,11.4 µM,13.1 µM,168 °C (dec.),,,,CNC(=C[N+](=O)[O-])NNS(=O)(=O)c1cccc2ccccc12 [compound 150]
11.8 µM,6.7 µM,9.3 µM,97 to 99 °C,,,,CNC(=C[N+](=O)[O-])NNc1cc(C(F)(F)F)cc(OCC2CCCO2)n1 (stereo not drawn) [compound 129]
49.8 µM,43.9 µM,46.8 µM,186 °C (dec.),,,,CNC(=C[N+](=O)[O-])NNc1ccc(C)cc1 [Compound No. 16]
19.2 µM,10.3 µM,13 µM,93 to 95 °C,,,,CNC(=C[N+](=O)[O-])NNc1cc(C(F)(F)F)cc(OCC2CCCCO2)n1 (stereo not drawn) [compound 128]
21.3 µM,29.2 µM,25.3 µM,186 °C (dec.),,,,CNC(=C[N+](=O)[O-])NN=Cc1ccc(Cl)cc1 [compound 136]
